#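 Where inhibition never reached the appropriate level, the endpoint shown equals the highest concentration tested. Otherwise, values were interpolated linearly from a five-concentration, 48-hour dose response in 96-well plates. At the GI50, growth is halved.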 Activity calls are given as the source filed them. Rule as the data show it: active = GI50 up to about 1.1 µM and inactive = higher.
# How the values were obtained:
# Assay in all cases: growth of human tumour cells (NCI), 48 h
# A498 = tested on: A498
# BT-549 = tested on: BT-549
# CAKI-1 = tested on: CAKI-1
# CCRF-CEM = tested on: CCRF-CEM
# COLO 205 = tested on: COLO 205
# HOP-92 = tested on: HOP-92
# Hs-578T = tested on: Hs-578T
# IGROV-1 = tested on: IGROV-1
# KM12 = tested on: KM12
# M14 = tested on: M14
# OVCAR-3 = tested on: OVCAR-3
# PC-3 = tested on: PC-3
# SF-268 = tested on: SF-268
# SF-295 = tested on: SF-295
# SK-MEL-2 = tested on: SK-MEL-2
# SK-MEL-5 = tested on: SK-MEL-5
# SK-OV-3 = tested on: SK-OV-3
# SR = tested on: SR
# T47D = tested on: T47D
Compound,GI50 (A498),GI50 (BT-549),GI50 (CAKI-1),GI50 (CCRF-CEM),GI50 (COLO 205),GI50 (HOP-92),GI50 (Hs-578T),GI50 (IGROV-1),GI50 (KM12),GI50 (M14),GI50 (OVCAR-3),GI50 (PC-3),GI50 (SF-268),GI50 (SF-295),GI50 (SK-MEL-2),GI50 (SK-MEL-5),GI50 (SK-OV-3),GI50 (SR),GI50 (T47D)
NCCNS(=O)(=O)c1ccc(N)cc1,> 100 µM (inactive),> 100 µM (inactive),> 100 µM (inactive),32.8 µM (inactive),> 100 µM (inactive),> 100 µM (inactive),66.1 µM (inactive),> 100 µM (inactive),> 100 µM (inactive),> 100 µM (inactive),> 100 µM (inactive),> 100 µM (inactive),> 100 µM (inactive),> 100 µM (inactive),> 100 µM (inactive),> 100 µM (inactive),> 100 µM (inactive),41.4 µM (inactive),> 100 µM (inactive)
Cc1c(CNc2ccc(Cl)c(Cl)c2Cl)cnc2nc(N)nc(N)c12,> 100 µM (inactive),24.9 µM (inactive),> 100 µM (inactive),0.125 µM (active),5.35 µM (inactive),5.85 µM (inactive),17.8 µM (inactive),0.499 µM (active),4.99 µM (inactive),0.942 µM (active),13.6 µM (inactive),2.58 µM (inactive),0.404 µM (active),0.065 µM (active),27.1 µM (inactive),0.263 µM (active),> 35.6 µM (inactive),0.357 µM (active),4.24 µM (inactive)
CC(=O)OCC1OC(n2c(-c3ccc(C)cc3)cc(-c3ccccc3)c(C#N)c2=S)C(OC(C)=O)C(OC(C)=O)C1OC(C)=O (stereo unspecified),31 µM (inactive),> 100 µM (inactive),> 100 µM (inactive),–,> 100 µM (inactive),> 100 µM (inactive),65.2 µM (inactive),> 100 µM (inactive),> 100 µM (inactive),> 100 µM (inactive),> 100 µM (inactive),> 100 µM (inactive),> 100 µM (inactive),> 100 µM (inactive),–,37.8 µM (inactive),> 100 µM (inactive),> 100 µM (inactive),> 100 µM (inactive)
OCC(CCc1c[nH]c2ccccc12)c1c[nH]c2ccccc12 (stereo unspecified),15.2 µM (inactive),16.5 µM (inactive),26.1 µM (inactive),–,16.9 µM (inactive),15.2 µM (inactive),20.8 µM (inactive),12.7 µM (inactive),15.9 µM (inactive),15.3 µM (inactive),27.3 µM (inactive),17.2 µM (inactive),17.3 µM (inactive),16.7 µM (inactive),16.5 µM (inactive),16.8 µM (inactive),30.5 µM (inactive),12.1 µM (inactive),16 µM (inactive)
CC(C)(C)c1cc2c(O)c(c1)C(c1ccccc1)c1cc(C(C)(C)C)cc(c1O)Cc1cc(C(C)(C)C)cc(c1O)C(c1ccccc1)c1cc(C(C)(C)C)cc(c1O)C2 (stereo unspecified),> 100 µM (inactive),> 100 µM (inactive),> 100 µM (inactive),44.9 µM (inactive),> 100 µM (inactive),> 100 µM (inactive),> 100 µM (inactive),> 100 µM (inactive),> 100 µM (inactive),> 100 µM (inactive),> 100 µM (inactive),> 100 µM (inactive),> 100 µM (inactive),> 100 µM (inactive),> 100 µM (inactive),> 100 µM (inactive),–,62.7 µM (inactive),> 100 µM (inactive)
CO/C(N)=C(C#N)/N=C/c1ccc2ccccc2c1,33 µM (inactive),18.5 µM (inactive),39.1 µM (inactive),24.8 µM (inactive),17.9 µM (inactive),34.5 µM (inactive),46.7 µM (inactive),43.6 µM (inactive),23.1 µM (inactive),–,24.2 µM (inactive),19.9 µM (inactive),> 100 µM (inactive),33.2 µM (inactive),31.1 µM (inactive),13 µM (inactive),82.6 µM (inactive),27.6 µM (inactive),8.73 µM (inactive)
O=C(Oc1ccccc1)N1c2ccccc2[C@@]23O[C@]24CCC[C@H]3C#C/C=C\C#C[C@H]14,14.3 µM (inactive),12.9 µM (inactive),13 µM (inactive),15.7 µM (inactive),14.8 µM (inactive),12.3 µM (inactive),16.6 µM (inactive),12.4 µM (inactive),13.6 µM (inactive),15.2 µM (inactive),13.3 µM (inactive),11.6 µM (inactive),13.6 µM (inactive),17.1 µM (inactive),11.8 µM (inactive),–,0.173 µM (active),10.4 µM (inactive),6.5 µM (inactive)
Cc1ccc2nc(NC(=O)C(=O)C3C(=O)NC(=S)NC3=O)sc2c1,> 100 µM (inactive),> 100 µM (inactive),> 100 µM (inactive),> 100 µM (inactive),–,> 100 µM (inactive),> 100 µM (inactive),49.4 µM (inactive),> 100 µM (inactive),> 100 µM (inactive),> 100 µM (inactive),> 100 µM (inactive),> 100 µM (inactive),> 100 µM (inactive),> 100 µM (inactive),> 100 µM (inactive),> 100 µM (inactive),> 10 µM (inactive),> 100 µM (inactive)
Cc1cc2nc(N3C(=O)/C(=C/c4cccc([N+](=O)[O-])c4)N=C3c3ccccc3)sc2cc1C,–,32.4 µM (inactive),52 µM (inactive),9.95 µM (inactive),36.3 µM (inactive),6.7 µM (inactive),24.5 µM (inactive),12.5 µM (inactive),27.2 µM (inactive),37.2 µM (inactive),32 µM (inactive),17.4 µM (inactive),25.9 µM (inactive),32.4 µM (inactive),23.1 µM (inactive),30.1 µM (inactive),67.8 µM (inactive),14.9 µM (inactive),27.1 µM (inactive)
COc1ccc(/C=C(\Cl)c2ccc(OC)c(OC)c2)cc1OC,> 43.5 µM (inactive),> 100 µM (inactive),> 100 µM (inactive),> 100 µM (inactive),> 100 µM (inactive),56 µM (inactive),> 100 µM (inactive),> 100 µM (inactive),> 100 µM (inactive),> 100 µM (inactive),> 100 µM (inactive),> 100 µM (inactive),> 100 µM (inactive),> 91.8 µM (inactive),> 100 µM (inactive),> 100 µM (inactive),> 100 µM (inactive),> 100 µM (inactive),> 100 µM (inactive)
Brc1c(C#CCC2CCCCC2)ccc(C#CCC2CCCCC2)c1Br,> 100 µM (inactive),> 100 µM (inactive),> 100 µM (inactive),> 100 µM (inactive),> 100 µM (inactive),> 100 µM (inactive),> 100 µM (inactive),> 100 µM (inactive),> 100 µM (inactive),> 100 µM (inactive),> 100 µM (inactive),> 100 µM (inactive),> 100 µM (inactive),> 100 µM (inactive),> 100 µM (inactive),> 100 µM (inactive),–,> 100 µM (inactive),> 100 µM (inactive)
COC(=O)c1c(C(=O)OC)c(C(c2ccccc2)c2ccccc2)n(-c2ccccc2)c1Cl,> 10 µM (inactive),7.16 µM (inactive),> 10 µM (inactive),4.61 µM (inactive),6.03 µM (inactive),9.14 µM (inactive),3.43 µM (inactive),> 10 µM (inactive),4.69 µM (inactive),> 10 µM (inactive),5.66 µM (inactive),3.09 µM (inactive),> 10 µM (inactive),5 µM (inactive),–,> 10 µM (inactive),–,3.17 µM (inactive),4.74 µM (inactive)
CCOC(=O)C(NC(=O)c1ccccc1)(Nc1ccc(S(=O)(=O)Nc2ccc(OC)nn2)cc1)C(F)(F)F (stereo unspecified),–,> 100 µM (inactive),> 100 µM (inactive),> 100 µM (inactive),> 100 µM (inactive),> 100 µM (inactive),> 100 µM (inactive),> 100 µM (inactive),> 100 µM (inactive),> 100 µM (inactive),> 100 µM (inactive),> 100 µM (inactive),> 100 µM (inactive),> 100 µM (inactive),> 100 µM (inactive),> 100 µM (inactive),> 100 µM (inactive),> 100 µM (inactive),> 100 µM (inactive)
Cc1ccc(S(=O)(=O)NNCNC(=O)c2ccccc2)cc1,–,> 100 µM (inactive),> 100 µM (inactive),17.6 µM (inactive),> 100 µM (inactive),> 100 µM (inactive),> 100 µM (inactive),> 100 µM (inactive),85.1 µM (inactive),> 100 µM (inactive),> 100 µM (inactive),> 100 µM (inactive),> 100 µM (inactive),> 100 µM (inactive),> 100 µM (inactive),> 100 µM (inactive),> 100 µM (inactive),2.29 µM (inactive),83.4 µM (inactive)
COc1cc(OC)cc(OCc2ccc3nc(-c4ccccc4)c(Cl)nc3c2)c1,35 µM (inactive),31.3 µM (inactive),11.5 µM (inactive),> 100 µM (inactive),25.2 µM (inactive),18.8 µM (inactive),27.3 µM (inactive),21.1 µM (inactive),58.3 µM (inactive),> 100 µM (inactive),> 100 µM (inactive),37.6 µM (inactive),30.5 µM (inactive),22.5 µM (inactive),35.6 µM (inactive),14.5 µM (inactive),–,19.7 µM (inactive),24.7 µM (inactive)
